The record followed here is patent US7557145B2, “Inhibition of the asexual reproduction of fungi by eugenol and/or derivatives thereof” (Henkel Kommanditgesellschaft auf Aktien (Henkel KGAA), priority 2003, dated 2009).

Holding throughout (type): cell-based
Experiment [1] concerns Aspergillus niger, DSM 1988. Nature of the experiment: Sporulation of Aspergillus niger on the surface of an acetate jointing compound. The protocol: Effect on Eugenol on the Sporulation of Aspergillis niger on the Surface of an Acetate Jointing Compound
Commercially available, but preservative-free, one-component silicone jointing compounds curing at room temperature (acetate system, cured 2.2×2.2×0.3 cm pieces of film) were disinfected with 70% EtOH (ethanol) and placed for 24 h in active component solutions with various concentrations (in ethanol, see Table for final concentrations). The test specimens were then re-washed twice with EtOH, rinsed with water (sterile) and dried for 24 h. The test specimens were weighed before and after this treatment and the quantity of active component in the test specimens was thus determined together with the concentration of the active component solution. The test specimens were then placed on wort agar plates and thinly coated with agar in which fungal spores had been incorporated (10^5 CFU/ml Aspergillus niger, DSM 1988). The plates were incubated for 3 days at 25° C. Sporulation was visually evaluated from the test specimens and the sporulation rate in [%] was determined.

Experiment [2] relates to Aspergillus niger (DSM 1988). The experiment can be described thus: Sporulation of Aspergillus niger on a filter surface after 2 applications. As to conditions: for Sporulation [%]: filter paper treated twice with 50 μl, 3 days at 25° C. How it is done: Effect of Eugenol on the Sporulation of Aspergillus niger on a Filter Surface After 2 Applications
Filter papers (2×2 cm) were disinfected and treated twice with a 1 hour interval with 50 μl of active-component solutions differing in concentration. The test specimens were then dried. The test specimens were then placed on wort agar plates and the surface of the wort agar plates was contaminated with 100 μl of a germ suspension (10^3 CFU/ml) of Aspergillus niger (DSM 1988). The plates were incubated for 3 days at 25° C. Sporulation was visually evaluated and the sporulation rate in [%] was determined. […] Sporulation was inhibited by increasing concentrations of eugenol and was 90% suppressed at 90 μm.

Experiment [3] deals with Aspergillus niger (DSM 1988). Nature of the experiment: Sporulation of Aspergillus niger on wort agar plates containing active component. How it is done: Effect of Eugenol and Eugenol Silicic Acid Esters on the Sporulation of Aspergillus niger
Contamination of the surface of wort agar plates with 100 μl of a germ suspension (10^3 CFU/ml) of Aspergillus niger (DSM 1988). Various quantities of active component (solutions in ethanol, final concentrations in % by weight, see Table) were added to the agar plates beforehand. The plates were incubated for 3 days at 25° C. Sporulation was visually evaluated and the sporulation rate in [%] was determined. […]

In the case of `C=CCc1ccc(O)c(OC)c1` [eugenol, 4-allyl-2-methoxyphenol], the “Sporulation [%]” value stood at 0% in experiment [1] (concentration of eugenol 1.7 μm/g jointing compound, 3 days at 25° C.); 100% in experiment [1] (concentration of eugenol <1 μm/g jointing compound, 3 days at 25° C.); 0% in experiment [1] (concentration of eugenol ca. 3 μm/g jointing compound, 3 days at 25° C.); 100% in experiment [2] (concentration 0.6 μm); 100% in experiment [2] (concentration 6 μm); 100% in experiment [2] (concentration 30 μm). The “Sporulation [%]” value is recorded as 100% in experiment [2] (concentration 45 μm); 100% in experiment [2] (concentration 60 μm); 10% in experiment [2] (concentration 90 μm); 10% in experiment [2] (concentration 120 μm); 100% in experiment [3] (concentration of eugenol 4 μm in wort agar, 3 days at 25° C., visually evaluated); 100% in experiment [3] (concentration of eugenol 40 μm in wort agar, 3 days at 25° C.). Further, the “Sporulation [%]” value is listed as 100% in experiment [3] (concentration of eugenol 65 μm in wort agar, 3 days at 25° C.); 80% in experiment [3] (concentration of eugenol 90 μm in wort agar, 3 days at 25° C.); 70% in experiment [3] (concentration of eugenol 110 μm in wort agar, 3 days at 25° C.); 0% in experiment [3] (concentration of eugenol 220 μm in wort agar, 3 days at 25° C.); 0% in experiment [3] (concentration of eugenol 330 μm in wort agar, 3 days at 25° C.); 0% in experiment [3] (concentration of eugenol 650 μm in wort agar, 3 days at 25° C.). In addition, the “Concentration at which sporulation was completely suppressed” value in experiment [1] (silicone jointing compound (acetate system), 3 days at 25° C.) is 1.7 μm/g jointing compound; in experiment [3] (wort agar plates, 3 days at 25° C.), 220 µM. The molecule further returned a Sporulation suppressed in experiment [2] (at 90 μm, filter surface after 2 applications) of 90%.
With `CC(C)=CCCC(C)=CCCC(C)=CCO` [farnesol, reference compound], the “Sporulation [%]” value in experiment [1] (concentration of farnesol 0.4 μm/g jointing compound, 3 days at 25° C.) was 100%; in experiment [1] (concentration of farnesol 1.1 μm/g jointing compound, 3 days at 25° C.) it was 100%; in experiment [1] (concentration of farnesol 17 μm/g jointing compound, 3 days at 25° C.), 30%; in experiment [2] (concentration 0.5 μm), 100%; in experiment [2] (concentration 5 μm), 100%; in experiment [2] (concentration 25 μm) it was 100%. The “Sporulation [%]” value in experiment [2] (concentration 35 μm) was determined as 60%; in experiment [2] (concentration 50 μm), 80%; in experiment [2] (concentration 70 μm), 50%; in experiment [2] (concentration 90 μm) it was 40%; in experiment [3] (comparison test, concentration of farnesol 125 μm) it was 50%. The “Inhibition of sporulation compared with eugenol” value in experiment [1] (parallel test series, identical concentrations) was “inhibited, but to a far lesser extent compared with identical concentrations of eugenol”; in experiment [2] (second, parallel test series, identical concentrations) it was “inhibited, but to a lesser extent compared with identical concentrations of eugenol”.
